Laboratory results taken from ChEMBL document CHEMBL1141495, “Isoindol-1,3-dione and isoindol-1-one derivatives with high binding affinity to beta-amyloid fibrils” (Bioorg Med Chem Lett, 2008).

Assay: Displacement of [125I]TZDM from beta amyloid 42 fibril

| Ki | Structure (SMILES) |
| --- | --- |
| 0.76 nM | Cc1ccc2c(c1)C(=O)N(c1ccc(N(C)C)cc1)C2 |
| 0.52 nM | CC(C(=O)O)c1ccc(N2Cc3ccccc3C2=O)cc1 (stereo not given) [INDOPROFEN] |
| 0.76 nM | CN(C)c1ccc(N2Cc3cc(Cl)ccc3C2=O)cc1 |
| 0.58 nM | CN(C)c1ccc(N2Cc3ccccc3C2=O)cc1 |
| 0.93 nM | CN(C)c1ccc(N2Cc3ccc(F)cc3C2=O)cc1 |
| 0.5 nM | CN(C)c1ccc(N2Cc3ccc(Cl)cc3C2=O)cc1 |
| 0.65 nM | COc1ccc(N2Cc3ccccc3C2=O)cc1N(C)C |
| 0.9 nM | COc1cc(N2Cc3ccccc3C2=O)ccc1N(C)C |
| 0.46 nM | CN(C)c1cccc(N2C(=O)c3ccccc3C2=O)c1 |
| 0.49 nM | CN(C)c1ccc(N2Cc3cc(F)ccc3C2=O)cc1 |
| 0.94 nM | COc1ccc2c(c1)CN(c1ccc(N(C)C)cc1)C2=O |
| 0.57 nM | CN(C)c1cccc(N2Cc3ccccc3C2=O)c1 |
| 0.69 nM | CN(C)c1ccc(N2C(=O)c3ccccc3C2=O)cc1 |
| 0.81 nM | CN(C)c1ccc(N2Cc3cc(Br)ccc3C2=O)cc1 |

Second part, the compound before the results:

| Structure (SMILES) | Ki |
| --- | --- |
| CNc1ccc(-c2nc3ccc(O)cc3s2)cc1 [PITTSBURGH COMPOUND B UNLABELLED] | 0.7 nM |
| Cc1ccc2c(c1)C(=O)N(c1ccc(N(C)C)cc1)C2=O | 0.5 nM |
| COc1cc(N2C(=O)c3ccc(F)cc3C2=O)ccc1N(C)C | 0.78 nM |
| CN(C)c1ccc(N2C(=O)c3ccc(F)cc3C2=O)cc1 | 0.56 nM |
| COc1cc(N2Cc3ccc(C)cc3C2=O)ccc1N(C)C | 0.46 nM |
| COc1cc(N2C(=O)c3ccc(Br)cc3C2=O)ccc1N(C)C | 0.42 nM |
| COc1cc(N2C(=O)c3ccccc3C2=O)ccc1N(C)C | 0.66 nM |
| CN(C)c1ccc(N2C(=O)c3ccc(N(C)C)cc3C2=O)cc1 | 0.7 nM |
| COc1cc(N2C(=O)c3ccc(Cl)cc3C2=O)ccc1N(C)C | 0.7 nM |
| COc1ccc2c(c1)C(=O)N(c1ccc(N(C)C)cc1)C2=O | 0.71 nM |
| COc1ccc(N2C(=O)c3ccccc3C2=O)cc1N(C)C | 0.44 nM |
